Experimental data as given in patent US9808003B2, “Herbicidally active 2-(substituted-phenyl)-cyclopentane-1,3-dione compounds and derivatives thereof” (Syngenta Limited, priority 2013, dated 2017).

What was measured:
Format in all cases: in vivo
Avena fatua (AVEFA) = test: Test 1B glasshouse assay, post-emergence herbicidal activity against grassy weeds; conditions: 14 DAA
Protocol: (§1) Biological Example 1B tests the herbicidal activity of“technical” compounds (i.e. compounds not previously formulated before the test), as the herbicides under test.
(§2) An “instant formulation”, known as the “IF50”, containing 50 g/liter (i.e. 5% w/v) of the “technical” (i.e. unformulated) active ingredient (i.e. the herbicide under test), is prepared by dissolving the active ingredient in a mixture of organic solvents and emulsifier, details of which are provided in the Table below.
(§3) This IF50 is mixed with a small, variable amount of acetone to aid dissolution, before addition of a 0.5% v/v aqueous solution of the adjuvant Adigor™ (an adjuvant containing rapeseed oil methyl ester, ethoxylated alcohols, and a mixture of heavy aromatic hydrocarbons, e.g. available from Syngenta), as the aqueous diluent, to form an aqueous spray solution which contains a predetermined concentration of the active ingredient (which varies depending on the application rate of the active ingredient to the plants) and 0.5% v/v of the adjuvant Adigor™. This aqueous spray solution is suitable for spraying onto plants.
(§4) Seeds of a variety of test species are sown in standard soil in pots. After cultivation for 14 days under controlled conditions in a glasshouse (at 22/16° C., day/night; 16 hours light; 65% humidity), the plants are sprayed post-emergence with the above-mentioned aqueous spray solution containing inter alia the “technical” active ingredient (i.e. the herbicide under test) and the adjuvant Adigor™.
(§5) The test plants are then grown on under controlled conditions in the glasshouse (at 22/16° C., day/night; 16 hours light; 65% humidity) and are watered twice daily. 14 days after application of the test herbicide, the test is evaluated visually for percentage phytotoxicity to the plant (where 100%=total damage to plant; 0%=no damage to plant).
(§6) More specifically, post-emergence herbicidal activity (phytotoxicity) data, on certain tested grassy monocotyledonous weeds (and/or plants of the type Gramineae) and cereal crops in the glasshouse, are measured 14 days after application of the herbicide (14 DAA), typically for inter alia one or more of the following application rates: • (a) a post-emergence application rate of 60 g/ha of the test herbicide with or without 50 g/ha of cloquintocet-mexyl safener, and • (b) a post-emergence application rate of 90 g/ha of the test herbicide with 50 g/ha of cloquintocet-mexyl safener, and • (c) a post-emergence application rate of 120 g/ha of the test herbicide with 50 g/ha of cloquintocet-mexyl safener.
(§7) The cloquintocet-mexyl, when used, is present in the formulation containing the herbicide under test dissolved in acetone plus IF50.
(§8) The range of herbicide application rates tested sometimes includes application rates other than those shown above, and the rates can vary depending on the herbicide under test.
(§9) Herbicidal activity (phytotoxicity) is evaluated visually, and an assessed percentage phytotoxicity score is given for each herbicidal application on each plant species (with 100%=total damage to plant; 0%=no damage to plant; the assessment is recorded in increments of 1%). Two replicates are made for each experiment, and the mean herbicidal activity (phytotoxicity) data is reported.
(§10) For compounds A34, A98, A99, A87, A100, A101, A89, A120, A120A, A120B, A23, A127, A128, A89, A112 and A113 the tested weeds were as follows: Avena fatua (AVEFA), Lolium multiflorum (LOLMU), Setaria viridis (SETVI), Poa annua (POAAN), Alopecurus myosuroides (ALOMY). All five of these are grassy monocotyledonous weeds. Except for SETVI, these are all “cool-season” grassy monocotyledonous weeds.

[1] = test system: Lolium multiflorum (LOLMU); test: as above; conditions: 14 DAA
Protocol: as §1, §2, §3, §4, §5, §6, §7, §8, §9, §10

Poa annua (POAAN) = test: as above; conditions: 14 DAA
Protocol: as §1, §2, §3, §4, §5, §6, §7, §8, §9, §10

Setaria viridis (SETVI) = test: as above; conditions: 14 DAA
Protocol: as §1, §2, §3, §4, §5, §6, §7, §8, §9, §10

[2] = test system: Alopecurus myosuroides (ALOMY); test: as above; conditions: 14 DAA
Protocol: as §1, §2, §3, §4, §5, §6, §7, §8, §9, §10

[3] = test system: Spring Barley “Harrington”; test: Test 1B glasshouse assay, post-emergence herbicidal activity against cereal crops; conditions: for Post-emergence herbicidal activity against cereal crops, percentage phytotoxicity, Spring Barley “Harrington”: 14 DAA
Protocol: as §1, §2, §3, §4, §5, §6, §7, §8, §9

Winter Barley “Suzuka” = test: as above; conditions: for Post-emergence herbicidal activity against cereal crops, percentage phytotoxicity, Winter Barley “Suzuka”: 14 DAA
Protocol: as §1, §2, §3, §4, §5, §6, §7, §8, §9

Winter Wheat “Hereward” = test: as above; conditions: for Post-emergence herbicidal activity against cereal crops, percentage phytotoxicity, Winter Wheat “Hereward”: 14 DAA
Protocol: as §1, §2, §3, §4, §5, §6, §7, §8, §9

Spring Wheat “Teal” = test: as above; conditions: 14 DAA
Protocol: as §1, §2, §3, §4, §5, §6, §7, §8, §9

[4] = 30 g/ha herbicide, 50 g/ha cloquintocet-mexyl
[5] = 45 g/ha herbicide, 50 g/ha cloquintocet-mexyl
[6] = 60 g/ha herbicide, 0 g/ha cloquintocet-mexyl
[7] = 60 g/ha herbicide, 50 g/ha cloquintocet-mexyl
[8] = herbicide 30 g/ha, cloquintocet-mexyl 50 g/ha
[9] = herbicide 45 g/ha, cloquintocet-mexyl 50 g/ha
[10] = herbicide 60 g/ha, cloquintocet-mexyl 0 g/ha
[11] = herbicide 60 g/ha, cloquintocet-mexyl 50 g/ha

Structure (SMILES)	Post-emergence herbicidal activity, percentage phytotoxicity, AVEFA (Avena fatua (AVEFA); [4]) [%]	Post-emergence herbicidal activity, percentage phytotoxicity, AVEFA (Avena fatua (AVEFA); [5]) [%]	Post-emergence herbicidal activity, percentage phytotoxicity, AVEFA (Avena fatua (AVEFA); [6]) [%]	Post-emergence herbicidal activity, percentage phytotoxicity, AVEFA (Avena fatua (AVEFA); [7]) [%]	Post-emergence herbicidal activity, percentage phytotoxicity, LOLMU [1, 4] [%]	Post-emergence herbicidal activity, percentage phytotoxicity, LOLMU [1, 5] [%]	Post-emergence herbicidal activity, percentage phytotoxicity, LOLMU [1, 6] [%]	Post-emergence herbicidal activity, percentage phytotoxicity, LOLMU [1, 7] [%]	Post-emergence herbicidal activity, percentage phytotoxicity, POAAN (Poa annua (POAAN); [4]) [%]	Post-emergence herbicidal activity, percentage phytotoxicity, POAAN (Poa annua (POAAN); [5]) [%]	Post-emergence herbicidal activity, percentage phytotoxicity, POAAN (Poa annua (POAAN); [6]) [%]	Post-emergence herbicidal activity, percentage phytotoxicity, POAAN (Poa annua (POAAN); [7]) [%]	Post-emergence herbicidal activity, percentage phytotoxicity, SETVI (Setaria viridis (SETVI); [4]) [%]	Post-emergence herbicidal activity, percentage phytotoxicity, SETVI (Setaria viridis (SETVI); [5]) [%]	Post-emergence herbicidal activity, percentage phytotoxicity, SETVI (Setaria viridis (SETVI); [6]) [%]	Post-emergence herbicidal activity, percentage phytotoxicity, SETVI (Setaria viridis (SETVI); [7]) [%]	Post-emergence herbicidal activity, percentage phytotoxicity, ALOMY [2, 4] [%]	Post-emergence herbicidal activity, percentage phytotoxicity, ALOMY [2, 5] [%]	Post-emergence herbicidal activity, percentage phytotoxicity, ALOMY [2, 6] [%]	Post-emergence herbicidal activity, percentage phytotoxicity, ALOMY [2, 7] [%]	further results
CCc1cc(-n2cc(Cl)cn2)cc(C)c1C1C(=O)C[C@H](CCNC(=O)c2ccccn2)C1=O (some centres unmarked) [Compound A101]	73	88	90	88	68	83	88	83	5	15	48	38	15	35	53	53	25	43	55	55	Post-emergence herbicidal activity against cereal crops, percentage phytotoxicity, Spring Barley “Harrington” [3, 4]: 18%; Post-emergence herbicidal activity against cereal crops, percentage phytotoxicity, Spring Barley “Harrington” [3, 5]: 18%; Post-emergence herbicidal activity against cereal crops, percentage phytotoxicity, Spring Barley “Harrington” [3, 6]: 48%; Post-emergence herbicidal activity against cereal crops, percentage phytotoxicity, Spring Barley “Harrington” [3, 7]: 23%; Post-emergence herbicidal activity against cereal crops, percentage phytotoxicity, Winter Barley “Suzuka” (Winter Barley “Suzuka”; [4]): 23%; Post-emergence herbicidal activity against cereal crops, percentage phytotoxicity, Winter Barley “Suzuka” (Winter Barley “Suzuka”; [5]): 23%; Post-emergence herbicidal activity against cereal crops, percentage phytotoxicity, Winter Barley “Suzuka” (Winter Barley “Suzuka”; [6]): 75%; Post-emergence herbicidal activity against cereal crops, percentage phytotoxicity, Winter Barley “Suzuka” (Winter Barley “Suzuka”; [7]): 40%; Post-emergence herbicidal activity against cereal crops, percentage phytotoxicity, Winter Wheat “Hereward” (Winter Wheat “Hereward”; [4]): 18%; Post-emergence herbicidal activity against cereal crops, percentage phytotoxicity, Winter Wheat “Hereward” (Winter Wheat “Hereward”; [5]): 23%; Post-emergence herbicidal activity against cereal crops, percentage phytotoxicity, Winter Wheat “Hereward” (Winter Wheat “Hereward”; [6]): 43%; Post-emergence herbicidal activity against cereal crops, percentage phytotoxicity, Winter Wheat “Hereward” (Winter Wheat “Hereward”; [7]): 38%; Post-emergence herbicidal activity against cereal crops, percentage phytotoxicity, Spring Wheat “Teal” (Spring Wheat “Teal”; [4]): 10%; Post-emergence herbicidal activity against cereal crops, percentage phytotoxicity, Spring Wheat “Teal” (Spring Wheat “Teal”; [5]): 13%; Post-emergence herbicidal activity against cereal crops, percentage phytotoxicity, Spring Wheat “Teal” (Spring Wheat “Teal”; [6]): 48%; Post-emergence herbicidal activity against cereal crops, percentage phytotoxicity, Spring Wheat “Teal” (Spring Wheat “Teal”; [7]): 18%
Cc1cc(C)c(C2C(=O)C[C@@H](CCNC(=O)c3ccc(Br)cn3)C2=O)c(C)c1 (some centres unmarked) [Compound A120A]	90	95	97	97	97	100	100	100	3	5	30	10	100	100	100	100	80	88	95	90	Percentage Phytotoxicity Spring Barley “Harrington” [3, 8]: 30%; Percentage Phytotoxicity Spring Barley “Harrington” [3, 9]: 60%; Percentage Phytotoxicity Spring Barley “Harrington” [3, 10]: 85%; Percentage Phytotoxicity Spring Barley “Harrington” [3, 11]: 73%; Percentage Phytotoxicity Winter Barley “Suzuka” (Winter Barley “Suzuka”; [8]): 23%; Percentage Phytotoxicity Winter Barley “Suzuka” (Winter Barley “Suzuka”; [9]): 75%; Percentage Phytotoxicity Winter Barley “Suzuka” (Winter Barley “Suzuka”; [10]): 93%; Percentage Phytotoxicity Winter Barley “Suzuka” (Winter Barley “Suzuka”; [11]): 83%; Percentage Phytotoxicity Winter Wheat “Hereward” (Winter Wheat “Hereward”; [8]): 53%; Percentage Phytotoxicity Winter Wheat “Hereward” (Winter Wheat “Hereward”; [9]): 60%; Percentage Phytotoxicity Winter Wheat “Hereward” (Winter Wheat “Hereward”; [10]): 73%; Percentage Phytotoxicity Winter Wheat “Hereward” (Winter Wheat “Hereward”; [11]): 65%
